The subject of data set [1] is mice. The data set can be described thus: Radioprotective activity: survival at the 30th day after irradiation. The settings on record: for responders at 400 mg/kg: 400 mg/kg i.p.; for responders at 1000 mg/kg: 1,000 mg/kg i.p.; for responders at 625 mg/kg: 625 mg/kg i.p.; for radioprotective activity (in words): mouse, in vivo; for responders at 500 mg/kg: 500 mg/kg i.p. Type of data set: in vivo. As for the experimental part: This study of radioprotective activity was carried out according to a technique described by M. Fatome at al., Eur. J. Med. Chem. 1977, 12, (1), 93. […] This dose is equal to 950 Rad.
More complete studies are recorded in Table II.

For data set [2], the system named is mice. The data set is described as follows: Acute toxicity (LD50), i.p. The data set is classed as in vivo. The note with it: Table I.
Data set [3] is described as follows: Acute toxicity (LD50), i.p. The note with it: mouse, in vivo, ip. Type of data set: in vivo, mice.
Where [4] appears, read: Mus musculus, light or radiation study, ip, 720 h, Table I, 750 mg/kg i.p., 15' before irradiation at 900 or 950 Rad, read-out: % survival at the 30th day.
The mark [5] stands for this setting: Mus musculus, light or radiation study, ip, 720 h, Table I, 15' before irradiation at 900 or 950 Rad, read-out: % survival at the 30th day.
Setting [6] is: Mus musculus, light or radiation study, ip, 720 h, read-out: % survival at 30 days, Table II, 750 mg/kg i.p., 15' before irradiation, 900 Rad.
Setting [7] is: Mus musculus, light or radiation study, ip, 720 h, read-out: % survival at 30 days, Table II, 750 mg/kg i.p., 2 hours before irradiation, 900 Rad.
[8] abbreviates: Mus musculus, light or radiation study, ip, 720 h, Table II, 15' before irradiation, 900 Rad, read-out: % survival at 30 days.
[9] abbreviates: Mus musculus, light or radiation study, ip, 720 h, Table II, 15' before irradiation, 1,100 Rad, read-out: % survival at 30 days.
[10] abbreviates: Mus musculus, light or radiation study, ip, 720 h, Table II, 15' before irradiation, 950 Rad, read-out: % survival at 30 days.

Results on 19 molecules are retold here after patent publication US4816482A, “Radioprotective agents having an amino-thioalkyl structure” (priority 1983, dated 1989).

Molecules are shown by their SMILES. Where a name gives a salt, the structure may show the parent alone. Read-outs that look alike come from different tables or passages of the source.

With `Br.CC(=O)SCCNC(=O)CN` [Example 2, HYDROBROMIDE], the responders at 187 mg/kg in data set [1] (Mus musculus, light or radiation study, ip, 720 h, Table I, 187 mg/kg i.p., 15' before irradiation at 900 or 950 Rad, read-out: % survival at the 30th day) is 67%. The responders at 750 mg/kg in data set [1] (setting [4]) turned out to be 100%.
One may read the LD50 as the dose expected to kill half of the subjects tested. Read a high LD50 as lower toxicity. As to `Br.CC(=O)SCCNC(=O)CN` [Example 2], the LD50 in data set [2] is listed as 1,500 mg/kg.
As for `Br.CC(=O)SCCNC(=O)[C@H](C)N` [Example 4, HYDROBROMIDE], in data set [1] (Mus musculus, light or radiation study, ip, 720 h, Table I, 188 mg/kg i.p., 15' before irradiation at 900 or 950 Rad), the responders at 188 mg/kg stood at 40%. Moreover, the responders at 750 mg/kg in data set [1] (setting [4]) was found to be 80%.
For `Br.CC(=O)SCCNC(=O)[C@H](C)N` [Example 4], the LD50 in data set [2] is given as 1,500 mg/kg.
On to `Br.CC(=O)SCCNC(=O)CCCN` [Example 6, HYDROBROMIDE], for which, in data set [1] (setting [5]), the responders at 400 mg/kg was found to be 60%.
Turning to `Br.CC(=O)SCCNC(=O)CCCN` [Example 6], the LD50 in data set [2] came to 800 mg/kg.
Consider `CC(=O)SCCNC(=O)CN` [Example 8], for which, in data set [1] (Table I, 750 mg/kg i.p., 15' before irradiation at 900 or 950 Rad), the “% survival at the 30th day” value was 93%. Moreover, the “% survival at 30 days” value in data set [1] (Table II, 187 mg/kg i.p., 15' before irradiation, 900 Rad) is 0%; in data set [1] (Table II, 750 mg/kg i.p., 15' before irradiation, 900 Rad) it was 93%; in data set [1] (Table II, 750 mg/kg i.p., 15' before irradiation, 1,100 Rad) it was 50%. The 50% lethal dose (LD50) in data set [3] (Table I) and in data set [3] (Table II) was 1200 mg/kg throughout.
Molecule `NCC(=O)NCCSC(=O)C(Cl)Cl.O=C(O)C(F)(F)F` [Example 10, N-GLYCYL-S-(DICHLOROACETYL)CYSTEAMINE TRIFLUOROACETATE] came in with a responders at 800 mg/kg in data set [1] (Mus musculus, light or radiation study, ip, 720 h, Table I, 800 mg/kg i.p., 15' before irradiation at 900 or 950 Rad) of 40%. Also, the LD50 in data set [2] is 800 mg/kg.
For `NCC(=O)NCCSSCCNC(=O)CN.O=C(O)C(F)(F)F.O=C(O)C(F)(F)F` [Example 18, N,N'-[…] DI(TRIFLUOROACETATE)], in data set [1] (Mus musculus, light or radiation study, ip, 720 h, read-out: % survival at 30 days, Table II, 47 mg/kg i.p., 15' before irradiation, 900 Rad), the responders at 47 mg/kg came out at 0%. The responders at 94 mg/kg in data set [1] (Mus musculus, light or radiation study, ip, 720 h, read-out: % survival at 30 days, Table II, 94 mg/kg i.p., 15' before irradiation, 900 Rad) came out at 30%. In addition, the responders at 187 mg/kg came out at 90% in data set [1] (Mus musculus, light or radiation study, ip, 720 h, read-out: % survival at 30 days, Table II, 187 mg/kg i.p., 15' before irradiation, 900 Rad) and 0% in data set [1] (Mus musculus, light or radiation study, ip, 720 h, read-out: % survival at 30 days, Table II, 187 mg/kg i.p., 15' before irradiation, 1,100 Rad). Also, the responders at 750 mg/kg in data set [1] (setting [6]) was 100%; in data set [1] (Mus musculus, light or radiation study, ip, 720 h, read-out: % survival at 30 days, Table II, 750 mg/kg i.p., 15' before irradiation, 1,300 Rad) it was 10%; in data set [1] (setting [7]), 60%. The responders at 1000 mg/kg in data set [1] (Mus musculus, light or radiation study, ip, 720 h, read-out: % survival at 30 days, Table II, 15' before irradiation, 1,300 Rad) is 0%. Moreover, the “% survival at the 30th day” value in data set [1] (ip, 750 mg/kg, 720 h) is 100%. Moreover, the results for the LD50 in data set [3] (Table I) and in data set [3] (Table II) were 1200 mg/kg and 1250 mg/kg, respectively.
Turning to `Br.Br.C[C@H](N)C(=O)NCCSSCCNC(=O)[C@H](C)N` [Example 19, N,N'-[…] DIHYDROBROMIDE], the responders at 400 mg/kg in data set [1] (Mus musculus, light or radiation study, ip, 720 h, read-out: % survival at the 30th day, Table I, 15' before irradiation at 900 or 950 Rad) amounted to 100%. Besides, in data set [3] (Table I), the LD50 turned out to be 800 mg/kg.
Turning to `CC(=O)SCCNC(=O)[C@H](C)N.O=C(O)C(F)(F)F` [Example 22, TRIFLUOROACETATE], in data set [1] (Mus musculus, ip, 720 h, Table II, 156 mg/kg i.p., time and Rad not given, read-out: % survival at 30 days), the responders at 156 mg/kg came out at 0%. Besides, the responders at 625 mg/kg worked out at 100% in data set [1] (setting [5]); 10% in data set [1] (Mus musculus, light or radiation study, ip, 720 h, Table II, 2 (hours, cut off) before irradiation, 900 Rad, read-out: % survival at 30 days); 100% in data set [1] (setting [8]); 50% in data set [1] (setting [9]).
In the case of `CC(=O)NC(C)(C)CSC(=O)CN.O=C(O)C(F)(F)F` [Example 24, TRIFLUOROACETATE], the responders at 750 mg/kg is 70% in data set [1] (setting [6]); 13% in data set [1] (Mus musculus, light or radiation study, ip, 720 h, read-out: % survival at 30 days, Table II, 750 mg/kg i.p., 15' before irradiation, 1,100 Rad); 50% in data set [1] (setting [7]); 70% in data set [1] (Mus musculus, light or radiation study, ip, 720 h, read-out: % survival at the 30th day, Table I, 750 mg/kg i.p., 15' before irradiation at 900 or 950 Rad).
For the molecule `CC(=O)NC(C)(C)CSC(=O)CN.O=C(O)C(F)(F)F` [Example 24], in data set [1], the “radioprotective activity (in words)” value is “show radioprotective activity”. The LD50 in data set [3] (Table I) and in data set [3] (Table II) was 1500 mg/kg each time.
On to `CC(=O)SCC(C)(C)NC(=O)CN` [Example 26, TRIFLUOROACETATE], for which the responders at 750 mg/kg in data set [1] (Mus musculus, ip, 720 h, Table II, 750 mg/kg i.p., 4th entry, time and Rad not given, read-out: % survival at 30 days) was 0%; in data set [1] (setting [4]), 60%; in data set [1] (Mus musculus, light or radiation study, ip, 720 h, Table II, 750 mg/kg i.p., 15' before irradiation, 900 Rad, read-out: % survival at 30 days), 60%; in data set [1] (Mus musculus, light or radiation study, ip, 720 h, Table II, 750 mg/kg i.p., 2 hours before irradiation, 900 Rad, read-out: % survival at 30 days), 70%. Also, in data set [1] (Mus musculus, light or radiation study, ip, 720 h, Table II, 187 mg/kg i.p., 15' before irradiation, 900 Rad, read-out: % survival at 30 days), the responders at 187 mg/kg is 40%. Besides, the “radioprotective activity (in words)” value in data set [1] is “show radioprotective activity”. Moreover, the LD50 in data set [3] (Table I) and in data set [3] (Table II) was 1200 mg/kg each time.
Regarding `CC(=O)SCCNC(=O)CNC(=O)CN.O=C(O)C(F)(F)F` [Example 28, TRIFLUOROACETATE], the results for the responders at 1000 mg/kg in data set [1] (setting [5]), in data set [1] (setting [8]) and in data set [1] (setting [9]) were 100%, 100% and 0%, respectively. Further, in data set [1] (Mus musculus, light or radiation study, ip, 720 h, Table II, 1,500 mg/kg i.p., 15' before irradiation, Rad not printed (1,100 in text), read-out: % survival at 30 days), the responders at 1500 mg/kg came out at 100%.
Consider `CC(=O)SCCNC(=O)CNC(=O)CN.O=C(O)C(F)(F)F` [Example 28], for which, in data set [1] (mice, 1,500 mg/kg (i.p.) 15 minutes before irradiation of 1,100 Rad), the “survival at 30 days” value is 100%. In addition, the LD50 in data set [3], in data set [3] (Table I) and in data set [3] (Table II) was over 2000 mg/kg each time.
As to `CC(=O)OC(CNC(=O)CN)CSSCC(CNC(=O)CN)OC(C)=O` (stereo not drawn) [Example 31, 1,2-DI(3-GLYCYLAMINO-2-ACETOXYPROPYL)[…](TRIFLUOROACETATE)], the “% survival at 30 days” value in data set [1] (ip, 93.7 mg/kg, 720 h) was 0%. Further, the “% survival at the 30th day” value in data set [1] (ip, 375 mg/kg) stood at 60%. Moreover, the LD50 in data set [3] (Table I) and in data set [3] (Table II) was 750 mg/kg throughout.
Turning to `CC(=O)NCCSC(=O)CN.O=C(O)C(F)(F)F` [Example 34, TRIFLUOROACETATE], the responders at 500 mg/kg in data set [1] (setting [5]) and in data set [1] (setting [10]) was 70% in each case. Moreover, the responders at 125 mg/kg in data set [1] (Mus musculus, light or radiation study, ip, 720 h, Table II, 125 mg/kg i.p., 15' before irradiation, 950 Rad, read-out: % survival at 30 days) is 20%.
Regarding `NCC(=O)NCC(=O)NCCSSCCNC(=O)CNC(=O)CN.O=C(O)C(F)(F)F.O=C(O)C(F)(F)F` [Example 36, N,N'-DI(GLYCYLGLYCYL)CYSTAMINE DI(TRIFLUOROACETATE)], the responders at 1000 mg/kg in data set [1] (setting [5]) and in data set [1] (setting [10]) was 30% each time. Moreover, the responders at 250 mg/kg in data set [1] (Mus musculus, light or radiation study, ip, 720 h, Table II, 250 mg/kg i.p., 15' before irradiation, 950 Rad, read-out: % survival at 30 days) was 10%. Also, the median lethal dose (LD50) in data set [3] (Table I) and in data set [3] (Table II) was 2000 mg/kg throughout.
